Laboratory results taken from ChEMBL document CHEMBL2401728, “An unexpected Dimroth rearrangement leading to annelated thieno[3,2-d][1,2,3]triazolo[1,5-a]pyrimidines with potent antitumor activity” (Eur J Med Chem, 2013).

Columns and labels:
Type in all cases: functional
UACC-257 = test: Cytotoxicity against human UACC257 cells after 48 hrs by SRB assay; conditions: UACC-257, 48 h
HL-60(TB) [1] = test: Cytotoxicity against human HL-60(TB) cells after 48 hrs by SRB assay; conditions: HL-60, 48 h
[2] = Cytotoxicity against human EKVX cells assessed as cellular growth at 1 uM after 48 hrs by SRB assay relative to control
HOP-92 = test: Cytotoxicity against human HOP92 cells assessed as cellular growth at 100 uM after 48 hrs by SRB assay relative to control
SNB-75 = test: Cytotoxicity against human SNB75 cells assessed as cellular growth at 100 uM after 48 hrs by SRB assay relative to control
[3] = Cytotoxicity against human NCI-ADR-RES cells after 48 hrs by SRB assay
KM12 = test: Cytotoxicity against human KM12 cells assessed as cellular growth at 0.1 uM after 48 hrs by SRB assay relative to control
TK-10 [4] = test: Cytotoxicity against human TK10 cells assessed as cellular growth at 100 uM after 48 hrs by SRB assay relative to control
SNB-19 = test: Cytotoxicity against human SNB19 cells after 48 hrs by SRB assay; conditions: SNB-19, 48 h
HOP-62 = test: Cytotoxicity against human HOP62 cells assessed as cellular growth at 100 uM after 48 hrs by SRB assay relative to control
Hs-578T [5] = test: Cytotoxicity against human Hs578T cells after 48 hrs by SRB assay
[6] = Cytotoxicity against human EKVX cells after 48 hrs by SRB assay
U-251 = test: Cytotoxicity against human U251 cells after 48 hrs by SRB assay; conditions: U-251, 48 h
MDA-MB-231 = test: Cytotoxicity against human MDA-MB-231 cells assessed as cellular growth at 1 uM after 48 hrs by SRB assay relative to control
NCI-H226 = test: Cytotoxicity against human NCI-H226 cells assessed as cellular growth at 100 uM after 48 hrs by SRB assay relative to control
Hs-578T [7] = test: Cytotoxicity against human Hs578T cells assessed as cellular growth at 100 uM after 48 hrs by SRB assay relative to control
Malme-3M [8] = test: Cytotoxicity against human MALME-3M cells assessed as cellular growth at 0.1 uM after 48 hrs by SRB assay relative to control
SF-295 = test: Cytotoxicity against human SF295 cells assessed as cellular growth at 100 uM after 48 hrs by SRB assay relative to control
A498 [9] = test: Cytotoxicity against human A498 cells assessed as cellular growth at 1 uM after 48 hrs by SRB assay relative to control
DU-145 = test: Cytotoxicity against human DU145 cells assessed as cellular growth at 1 uM after 48 hrs by SRB assay relative to control
SF-268 = test: Cytotoxicity against human SF268 cells assessed as cellular growth at 0.01 uM after 48 hrs by SRB assay relative to control
Malme-3M [10] = test: Cytotoxicity against human MALME-3M cells assessed as cellular growth at 0.01 uM after 48 hrs by SRB assay relative to control
T47D = test: Cytotoxicity against human T47D cells assessed as cellular growth at 100 uM after 48 hrs by SRB assay relative to control
MDA-MB-468 = test: Cytotoxicity against human MDA-MB-468 cells assessed as cellular growth at 1 uM after 48 hrs by SRB assay relative to control
A498 [11] = test: Cytotoxicity against human A498 cells assessed as cellular growth at 0.01 uM after 48 hrs by SRB assay relative to control
HL-60(TB) [12] = test: Cytotoxicity against human HL-60(TB) cells assessed as cellular growth at 0.1 uM after 48 hrs by SRB assay relative to control
MCF7 = test: Cytotoxicity against human MCF7 cells after 48 hrs by SRB assay; conditions: MCF7, 48 h
[13] = Cytotoxicity against human EKVX cells assessed as cellular growth at 0.01 uM after 48 hrs by SRB assay relative to control
M14 = test: Cytotoxicity against human M14 cells assessed as cellular growth at 1 uM after 48 hrs by SRB assay relative to control
SK-OV-3 = test: Cytotoxicity against human SKOV3 cells after 48 hrs by SRB assay; conditions: SK-OV-3, 48 h
SK-MEL-5 = test: Cytotoxicity against human SK-MEL-5 cells assessed as cellular growth at 1 uM after 48 hrs by SRB assay relative to control
LOX IMVI = test: Cytotoxicity against human LOXIMVI cells assessed as cellular growth at 0.1 uM after 48 hrs by SRB assay relative to control
TK-10 [14] = test: Cytotoxicity against human TK10 cells assessed as cellular growth at 0.1 uM after 48 hrs by SRB assay relative to control
SF-539 = test: Cytotoxicity against human SF539 cells after 48 hrs by SRB assay; conditions: SF-539, 48 h
[15] = read-out: LC50 (the source's name)
[16] = read-out: pLC50 (the source's name) (converted)

Compound `O=C(CCCn1c2c(sc3ccccc32)c(=O)n2nnc(-c3ccccc3)c12)NCCc1c[nH]cn1` has a GI50 (UACC-257; read-out: GI50) of 2.14 µM, a CC50 (UACC-257; [15]) of 7.83 µM and a TGI (UACC-257; read-out: TGI) of 4.09 µM. The GI50 (UACC-257; read-out: pGI50 (converted)) was 2.14 µM, the CC50 (UACC-257; [16]) was 7.76 µM and the TGI (UACC-257; read-out: pTGI (converted)) was 4.07 µM. It also gave a GI50 (HL-60(TB) [1]; read-out: GI50) of 0.0724 µM, a CC50 (HL-60(TB) [1]; [15]) of 22.7 µM and a TGI (HL-60(TB) [1]; read-out: TGI) of 3.21 µM. For the same compound, the GI50 (HL-60(TB) [1]; read-out: pGI50 (converted)) was 0.0724 µM, the CC50 (HL-60(TB) [1]; [16]) was 22.9 µM and the TGI (HL-60(TB) [1]; read-out: pTGI (converted)) was 3.24 µM. For the same compound, the Activity [2] was 79%, the Activity (HOP-92) was -50% and the Activity (SNB-75) was -96%. The GI50 ([3]; read-out: GI50) was 1.07 µM, the CC50 [3, 15] was greater than 100 µM and the TGI ([3]; read-out: TGI) was greater than 100 µM. For the same compound, the GI50 ([3]; read-out: pGI50 (converted)) was 1.07 µM, the Activity (KM12) was 62% and the Activity (TK-10 [4]) was -79%. For the same compound, the GI50 (SNB-19; read-out: GI50) was 5.12 µM, the CC50 (SNB-19; [15]) was 54.3 µM and the TGI (SNB-19; read-out: TGI) was 22.1 µM. It also gave a GI50 (SNB-19; read-out: pGI50 (converted)) of 5.13 µM, a CC50 (SNB-19; [16]) of 53.7 µM and a TGI (SNB-19; read-out: pTGI (converted)) of 21.9 µM. It also gave an Activity (HOP-62) of -66%, a GI50 (Hs-578T [5]; read-out: GI50) of 1.47 µM and a TGI (Hs-578T [5]; read-out: TGI) of 3.82 µM. For the same compound, the GI50 (Hs-578T [5]; read-out: pGI50 (converted)) was 1.48 µM, the TGI (Hs-578T [5]; read-out: pTGI (converted)) was 3.8 µM and the GI50 ([6]; read-out: GI50) was 2.5 µM. For the same compound, the CC50 [6, 15] was greater than 100 µM, the TGI ([6]; read-out: TGI) was 15.8 µM and the GI50 ([6]; read-out: pGI50 (converted)) was 2.51 µM. The CC50 [6, 16] was greater than 100 µM, the TGI ([6]; read-out: pTGI (converted)) was 15.8 µM and the GI50 (U-251; read-out: GI50) was 0.165 µM. The CC50 (U-251; [15]) was 4.3 µM, the TGI (U-251; read-out: TGI) was 1.85 µM and the GI50 (U-251; read-out: pGI50 (converted)) was 0.166 µM. For the same compound, the CC50 (U-251; [16]) was 4.27 µM, the TGI (U-251; read-out: pTGI (converted)) was 1.86 µM and the Activity (MDA-MB-231) was 101%. It also gave an Activity (NCI-H226) of -72%, an Activity (Hs-578T [7]) of -49% and an Activity (Malme-3M [8]) of 101%. The Activity (SF-295) was -65%, the Activity (A498 [9]) was 55% and the Activity (DU-145) was 55%. For the same compound, the Activity (SF-268) was 105%, the Activity (Malme-3M [10]) was 100% and the Activity (T47D) was -88%. For the same compound, the Activity (MDA-MB-468) was 8%, the Activity (A498 [11]) was 93% and the Activity (HL-60(TB) [12]) was 43%. For the same compound, the GI50 (MCF7; read-out: GI50) was 1.15 µM, the LC50 (MCF7; read-out: LC50) was 6.11 µM and the TGI (MCF7; read-out: TGI) was 2.65 µM. It also gave a GI50 (MCF7; read-out: pGI50 (converted)) of 1.15 µM, an LC50 (MCF7; read-out: pLC50 (converted)) of 6.17 µM and a TGI (MCF7; read-out: pTGI (converted)) of 2.63 µM. For the same compound, the Activity [13] was 104%, the Activity (M14) was 33% and the GI50 (SK-OV-3; read-out: GI50) was 2.39 µM. It also gave a CC50 (SK-OV-3; [15]) of 29.2 µM, a TGI (SK-OV-3; read-out: TGI) of 8.5 µM and a GI50 (SK-OV-3; read-out: pGI50 (converted)) of 2.4 µM. It also gave a CC50 (SK-OV-3; [16]) of 29.5 µM, a TGI (SK-OV-3; read-out: pTGI (converted)) of 8.51 µM and an Activity (SK-MEL-5) of 70%. The Activity (LOX IMVI) was 89%, the Activity (TK-10 [14]) was 93% and the GI50 (SF-539; read-out: GI50) was 0.0206 µM. It also gave a CC50 (SF-539; [15]) of 3.14 µM, a TGI (SF-539; read-out: TGI) of 0.122 µM and a GI50 (SF-539; read-out: pGI50 (converted)) of 0.0204 µM. The CC50 (SF-539; [16]) was 3.16 µM and the TGI (SF-539; read-out: pTGI (converted)) was 0.123 µM.
